Laboratory results: ChEMBL document CHEMBL1201862, “PubChem BioAssay data set” (2004)
The source made the active and inactive calls.

Columns and labels:
Mu-type opioid receptor [1] = target: T1, Mu-type opioid receptor (Homo sapiens, UniProt P35372); assay: SAR Analysis of Antagonists of the MOR Receptor using an Image-Based Assay - Set 2. [Related pubchem assays (depositor defined):AID1777, AID1785, AID1786, AID1966, AID2133, AID2136, AID2284, AID2285, AID2420]; format: functional
[2] = target: T2, Kappa-type opioid receptor (Homo sapiens, UniProt P41145); assay: SAR analysis of Antagonists of the Kappa Opioid Receptor (KOR) using an Image-Based Assay - Set 2. [Related pubchem assays (depositor defined):AID1777, AID1785, AID1786, AID1966, AID2133, AID2136, AID2284, AID2285, AID2348]; format: functional
Mu-type opioid receptor [3] = target: T1, Mu-type opioid receptor; assay: SAR Analysis of Agonists of the MOR Receptor using an Image-Based Assay - Set 2. [Related pubchem assays (depositor defined):AID1777, AID1785, AID1786, AID1966, AID2133, AID2136, AID2284, AID2285, AID2352]; format: functional
[4] = target: T2, Kappa-type opioid receptor; assay: SAR analysis of small molecule agonists of the kappa opioid receptor via a luminescent beta-arrestin assay - Set 2. [Related pubchem assays (depositor defined):AID1777, AID1785, AID1786, AID1966, AID2133, AID2136, AID2284, AID449737]; format: functional
[5] = target: T3, Delta-type opioid receptor (Homo sapiens, UniProt P41143); assay: SAR Analysis of Agonists of the DOR Receptor using an Image-Based Assay - Set 2. [Related pubchem assays (depositor defined):AID1777, AID1785, AID1786, AID1966, AID2133, AID2136, AID2284, AID2285, AID2370]; format: functional
[6] = target: T3, Delta-type opioid receptor; assay: SAR Analysis of Antagonists of the DOR Receptor using an Image-Based Assay - Set 2. [Related pubchem assays (depositor defined):AID1777, AID1785, AID1786, AID1966, AID2133, AID2136, AID2284, AID2285, AID2357]; format: functional
[7] = target: T2, Kappa-type opioid receptor; assay: SAR analysis of Agonists of the Kappa Opioid Receptor (KOR) using an Image-Based Assay - Set 2. [Related pubchem assays (depositor defined):AID1777, AID1786, AID1966, AID2133, AID2136, AID2284, AID2285, AID2359]; format: functional
[8] = target: Voltage-dependent T-type calcium channel subunit alpha-1H (Homo sapiens, UniProt O95180); assay: inhibition of CACNA1H calcium flux – cell-based, SynthLib3 library, HEK293 Cav3.2, fluorescence (AID 493041); format: functional
[9] = decrease of insulin promoter-GFP reporter – imaging, high-content screening, mouse beta cells (AID 1628); format: functional; conditions: MIN6
[10] = MIN6 cell viability loss – mouse insulinoma, cytotoxicity control, dose response (AID 2122); format: functional;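 further: confirmatory high-throughput counterscreen run to flag cytotoxic compounds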
H4 = assay: Luminescence Cell-Based Dose Response HTS to Identify Activators of 5'UTR Stem-Loop Driven Prion Protein mRNA Translation in H4 Neuroglioblastoma Cells. [Related pubchem assays: 1829 (Project Summary), 1814 (Primary HTS)]; format: functional; conditions: Homo sapiens
Large T antigen = Large T antigen (Simian virus 40, UniProt P03070); format: functional, Betapolyomavirus macacae;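 further: Confirmatory-stage PubChem screen for compounds that inhibit SV40 T antigen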
[11] = target: Intestinal-type alkaline phosphatase (Mus musculus, UniProt P24822); assay: PubChem AID 488785; format: functional
[12] = target: T4, Alkaline phosphatase, tissue-nonspecific isozyme (Homo sapiens, UniProt P05186); assay: TNAP enzyme inhibition by screening hits, dose response, selectivity assay for mouse IAP inhibitor project, biochemical, human TNAP, uHTS hits (AID 488906); format: functional
T4 sequence (P05186 whole entry): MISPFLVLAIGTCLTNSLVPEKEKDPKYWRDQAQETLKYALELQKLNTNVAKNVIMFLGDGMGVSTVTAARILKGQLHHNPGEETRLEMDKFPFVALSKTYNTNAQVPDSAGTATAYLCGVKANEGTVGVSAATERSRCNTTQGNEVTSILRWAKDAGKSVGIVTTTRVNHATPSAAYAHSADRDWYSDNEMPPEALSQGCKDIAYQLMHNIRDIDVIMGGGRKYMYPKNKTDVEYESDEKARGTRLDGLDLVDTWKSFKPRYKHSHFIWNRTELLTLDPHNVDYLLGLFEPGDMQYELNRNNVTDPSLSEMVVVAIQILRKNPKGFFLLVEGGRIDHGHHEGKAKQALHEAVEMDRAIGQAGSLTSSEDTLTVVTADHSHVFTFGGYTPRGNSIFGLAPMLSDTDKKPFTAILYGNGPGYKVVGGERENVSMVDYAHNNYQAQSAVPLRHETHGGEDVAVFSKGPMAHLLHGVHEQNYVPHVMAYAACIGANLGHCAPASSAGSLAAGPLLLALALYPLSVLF

[13] = target: Intestinal-type alkaline phosphatase (Homo sapiens, UniProt P09923); assay: inhibition of human intestinal alkaline phosphatase – biochemical, dose response (AID 488876); format: functional
[14] = target: T5, Rac GTPase-activating protein 1 (Homo sapiens, UniProt Q9H0H5); assay: blockers of MgcRacGAP-driven Rac1 GTP hydrolysis – biochemical, ADP Hunter fluorescence, primary and confirmatory, confirmation (AID 624330); format: functional
T5 sequence (Q9H0H5 whole entry): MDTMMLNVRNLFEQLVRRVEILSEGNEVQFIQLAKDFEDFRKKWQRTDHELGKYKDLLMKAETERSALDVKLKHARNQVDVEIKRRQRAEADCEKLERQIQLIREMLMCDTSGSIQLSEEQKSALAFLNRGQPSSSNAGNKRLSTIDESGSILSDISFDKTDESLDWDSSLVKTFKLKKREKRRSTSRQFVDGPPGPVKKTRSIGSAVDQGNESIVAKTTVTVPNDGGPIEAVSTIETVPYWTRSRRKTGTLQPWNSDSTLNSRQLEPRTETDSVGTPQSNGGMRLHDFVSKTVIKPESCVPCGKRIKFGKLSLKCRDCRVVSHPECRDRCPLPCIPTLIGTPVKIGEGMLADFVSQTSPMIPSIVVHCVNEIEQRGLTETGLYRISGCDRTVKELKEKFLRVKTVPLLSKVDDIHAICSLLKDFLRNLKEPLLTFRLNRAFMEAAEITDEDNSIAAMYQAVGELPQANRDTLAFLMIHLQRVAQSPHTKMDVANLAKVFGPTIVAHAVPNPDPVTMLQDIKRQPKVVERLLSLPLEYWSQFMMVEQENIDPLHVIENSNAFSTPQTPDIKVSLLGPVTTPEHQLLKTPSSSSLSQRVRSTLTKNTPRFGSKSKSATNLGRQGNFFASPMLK

Protein Tat = Protein Tat (Human immunodeficiency virus type 1 group M subtype B (isolate HXB2)(HIV-1), UniProt P04608); format: functional;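 further: tat binding to TAR RNA read out by fluorescence polarization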
[15] = viability loss in THP-1 monocytes – THP-1 cells, cytotoxicity control for Vif-APOBEC3G degradation inhibitor project, dose response (AID 1117359); format: functional; conditions: THP-1

T2 sequence (P41145 whole entry): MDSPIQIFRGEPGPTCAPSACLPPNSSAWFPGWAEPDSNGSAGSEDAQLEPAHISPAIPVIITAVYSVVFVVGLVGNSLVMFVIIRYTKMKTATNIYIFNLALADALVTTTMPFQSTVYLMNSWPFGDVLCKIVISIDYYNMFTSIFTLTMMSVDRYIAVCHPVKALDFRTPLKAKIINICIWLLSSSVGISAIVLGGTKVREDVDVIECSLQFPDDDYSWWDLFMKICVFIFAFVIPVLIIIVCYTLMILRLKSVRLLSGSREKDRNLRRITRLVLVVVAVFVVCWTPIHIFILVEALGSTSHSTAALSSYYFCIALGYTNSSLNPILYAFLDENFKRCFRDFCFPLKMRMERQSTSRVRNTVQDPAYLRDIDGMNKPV
T3 sequence (P41143 whole entry): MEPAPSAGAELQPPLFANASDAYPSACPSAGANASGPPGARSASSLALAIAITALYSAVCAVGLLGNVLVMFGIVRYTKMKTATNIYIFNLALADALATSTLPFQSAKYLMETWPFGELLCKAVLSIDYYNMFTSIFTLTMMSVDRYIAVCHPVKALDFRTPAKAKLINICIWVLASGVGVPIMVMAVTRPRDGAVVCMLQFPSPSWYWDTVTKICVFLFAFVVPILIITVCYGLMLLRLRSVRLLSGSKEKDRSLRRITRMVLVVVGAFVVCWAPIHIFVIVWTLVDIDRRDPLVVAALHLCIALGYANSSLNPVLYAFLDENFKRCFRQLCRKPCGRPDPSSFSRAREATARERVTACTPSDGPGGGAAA
T1 sequence (P35372 whole entry): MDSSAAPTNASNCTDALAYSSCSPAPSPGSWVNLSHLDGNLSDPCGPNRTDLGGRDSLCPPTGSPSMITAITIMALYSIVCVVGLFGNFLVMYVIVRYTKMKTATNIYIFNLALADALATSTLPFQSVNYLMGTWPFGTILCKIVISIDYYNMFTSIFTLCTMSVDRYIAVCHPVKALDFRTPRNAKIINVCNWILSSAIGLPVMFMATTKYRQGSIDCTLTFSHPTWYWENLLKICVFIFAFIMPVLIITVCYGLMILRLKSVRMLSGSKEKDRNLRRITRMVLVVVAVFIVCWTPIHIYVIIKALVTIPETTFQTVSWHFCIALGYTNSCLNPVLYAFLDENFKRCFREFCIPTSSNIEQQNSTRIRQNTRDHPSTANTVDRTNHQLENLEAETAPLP
Chain of Protein Tat (P04608 whole entry): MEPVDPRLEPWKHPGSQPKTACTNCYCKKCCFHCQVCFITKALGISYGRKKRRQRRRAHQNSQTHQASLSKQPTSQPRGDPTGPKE
Chain of Intestinal-type alkaline phosphatase (Homo sapiens, UniProt P09923) (P09923 whole entry): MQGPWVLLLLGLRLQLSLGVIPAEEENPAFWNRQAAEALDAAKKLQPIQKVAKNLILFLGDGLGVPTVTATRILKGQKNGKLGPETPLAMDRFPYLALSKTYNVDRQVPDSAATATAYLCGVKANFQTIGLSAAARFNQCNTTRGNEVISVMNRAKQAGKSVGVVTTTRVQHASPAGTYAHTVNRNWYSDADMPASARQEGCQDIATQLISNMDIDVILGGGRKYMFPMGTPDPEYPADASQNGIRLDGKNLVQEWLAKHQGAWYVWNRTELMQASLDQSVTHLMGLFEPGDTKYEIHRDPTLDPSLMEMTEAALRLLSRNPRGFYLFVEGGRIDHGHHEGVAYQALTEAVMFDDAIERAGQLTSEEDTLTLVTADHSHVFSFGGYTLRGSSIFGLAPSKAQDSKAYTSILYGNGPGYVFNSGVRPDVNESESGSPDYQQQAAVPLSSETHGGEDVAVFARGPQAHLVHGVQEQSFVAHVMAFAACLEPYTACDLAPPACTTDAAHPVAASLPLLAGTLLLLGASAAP
Chain of Voltage-dependent T-type calcium channel subunit alpha-1H (O95180 whole entry): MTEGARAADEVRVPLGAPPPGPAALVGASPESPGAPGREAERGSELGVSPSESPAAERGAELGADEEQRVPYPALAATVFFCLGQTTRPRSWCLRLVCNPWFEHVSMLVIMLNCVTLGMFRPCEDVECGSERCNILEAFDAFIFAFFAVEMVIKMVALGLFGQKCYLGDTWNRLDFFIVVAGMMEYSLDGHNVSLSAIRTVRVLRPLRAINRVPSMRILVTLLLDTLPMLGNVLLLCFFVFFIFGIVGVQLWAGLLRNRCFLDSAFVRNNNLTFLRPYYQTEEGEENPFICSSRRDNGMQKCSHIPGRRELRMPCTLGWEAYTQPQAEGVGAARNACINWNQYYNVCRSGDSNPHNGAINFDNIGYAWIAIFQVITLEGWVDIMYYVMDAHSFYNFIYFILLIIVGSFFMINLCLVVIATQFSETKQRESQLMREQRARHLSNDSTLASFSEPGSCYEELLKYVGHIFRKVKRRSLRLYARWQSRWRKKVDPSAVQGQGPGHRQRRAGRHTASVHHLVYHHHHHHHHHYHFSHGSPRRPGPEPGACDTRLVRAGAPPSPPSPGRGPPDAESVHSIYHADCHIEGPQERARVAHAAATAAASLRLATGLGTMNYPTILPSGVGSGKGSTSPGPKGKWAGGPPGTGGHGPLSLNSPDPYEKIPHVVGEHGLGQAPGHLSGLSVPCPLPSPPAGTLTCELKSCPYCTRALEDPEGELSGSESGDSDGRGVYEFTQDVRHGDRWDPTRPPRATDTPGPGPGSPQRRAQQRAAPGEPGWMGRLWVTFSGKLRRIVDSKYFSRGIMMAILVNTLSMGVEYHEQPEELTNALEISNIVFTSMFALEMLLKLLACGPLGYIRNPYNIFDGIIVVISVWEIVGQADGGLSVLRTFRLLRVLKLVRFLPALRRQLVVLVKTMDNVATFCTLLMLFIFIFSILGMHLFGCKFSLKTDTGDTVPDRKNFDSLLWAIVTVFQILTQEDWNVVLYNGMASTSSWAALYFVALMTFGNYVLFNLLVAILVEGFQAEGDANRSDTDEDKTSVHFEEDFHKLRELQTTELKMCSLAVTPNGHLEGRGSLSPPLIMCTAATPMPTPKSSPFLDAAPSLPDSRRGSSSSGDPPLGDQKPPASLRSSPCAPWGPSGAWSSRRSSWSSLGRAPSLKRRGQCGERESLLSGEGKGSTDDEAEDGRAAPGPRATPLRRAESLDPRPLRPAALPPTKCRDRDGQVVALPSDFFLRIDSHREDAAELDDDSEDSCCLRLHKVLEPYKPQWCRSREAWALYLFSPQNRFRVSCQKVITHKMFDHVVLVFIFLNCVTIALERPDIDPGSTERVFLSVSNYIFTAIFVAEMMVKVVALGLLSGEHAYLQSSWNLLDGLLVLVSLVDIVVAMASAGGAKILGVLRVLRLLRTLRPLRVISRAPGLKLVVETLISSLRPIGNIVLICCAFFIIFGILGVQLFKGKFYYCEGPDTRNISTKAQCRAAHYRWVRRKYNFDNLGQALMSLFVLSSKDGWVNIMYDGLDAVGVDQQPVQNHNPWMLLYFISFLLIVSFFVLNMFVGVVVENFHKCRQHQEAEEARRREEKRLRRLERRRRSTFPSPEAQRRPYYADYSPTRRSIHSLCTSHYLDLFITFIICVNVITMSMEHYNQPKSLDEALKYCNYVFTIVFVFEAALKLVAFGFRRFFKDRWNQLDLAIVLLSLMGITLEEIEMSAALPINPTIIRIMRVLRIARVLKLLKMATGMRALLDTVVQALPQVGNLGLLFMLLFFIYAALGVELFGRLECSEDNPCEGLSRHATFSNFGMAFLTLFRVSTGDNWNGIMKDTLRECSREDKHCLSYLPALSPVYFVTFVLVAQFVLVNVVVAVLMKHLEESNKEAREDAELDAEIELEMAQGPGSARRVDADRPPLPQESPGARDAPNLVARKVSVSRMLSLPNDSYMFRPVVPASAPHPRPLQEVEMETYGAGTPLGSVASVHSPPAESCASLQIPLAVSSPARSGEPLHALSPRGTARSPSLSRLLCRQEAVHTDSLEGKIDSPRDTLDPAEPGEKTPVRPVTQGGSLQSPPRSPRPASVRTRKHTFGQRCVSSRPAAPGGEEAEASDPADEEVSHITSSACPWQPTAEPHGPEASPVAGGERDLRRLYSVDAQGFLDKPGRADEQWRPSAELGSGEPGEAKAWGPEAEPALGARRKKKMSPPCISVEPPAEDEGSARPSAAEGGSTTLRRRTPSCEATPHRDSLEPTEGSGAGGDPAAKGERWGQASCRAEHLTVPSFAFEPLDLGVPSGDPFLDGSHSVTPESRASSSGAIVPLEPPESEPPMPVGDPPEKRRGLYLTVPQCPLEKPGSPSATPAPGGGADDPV
Chain of Intestinal-type alkaline phosphatase (Mus musculus, UniProt P24822) (P24822 whole entry): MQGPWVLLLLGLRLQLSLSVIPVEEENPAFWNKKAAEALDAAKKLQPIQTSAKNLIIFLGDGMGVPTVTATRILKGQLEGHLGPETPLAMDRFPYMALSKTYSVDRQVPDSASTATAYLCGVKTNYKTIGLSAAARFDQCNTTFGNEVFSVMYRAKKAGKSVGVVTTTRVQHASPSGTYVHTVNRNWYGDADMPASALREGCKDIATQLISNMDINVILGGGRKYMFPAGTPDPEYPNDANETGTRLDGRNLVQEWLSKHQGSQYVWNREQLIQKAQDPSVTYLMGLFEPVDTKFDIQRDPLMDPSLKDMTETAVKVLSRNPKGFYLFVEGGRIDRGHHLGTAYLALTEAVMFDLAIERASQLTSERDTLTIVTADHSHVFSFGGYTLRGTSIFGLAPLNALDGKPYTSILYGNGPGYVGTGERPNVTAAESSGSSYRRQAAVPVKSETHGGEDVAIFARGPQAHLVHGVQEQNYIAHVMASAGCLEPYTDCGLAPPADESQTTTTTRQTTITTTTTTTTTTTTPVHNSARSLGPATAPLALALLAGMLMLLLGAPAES

SMILES: Brc1ccc(CSc2nnc(-c3ccccn3)n2Cc2cccs2)cc1
- IC50 (Mu-type opioid receptor [1]): > 32 µM (inactive)
- IC50 [2]: > 32 µM (inactive)
- EC50 (Mu-type opioid receptor [3]): > 32 µM (inactive)
- EC50 [4]: 1.85 µM (active)
- EC50 [5]: > 32 µM (inactive)
- IC50 [6]: > 32 µM (inactive)
- EC50 [7]: 1.1 µM (active)

SMILES: CC(C)CCN1C[C@@H]2C(CNC(=O)c3cc(Cl)cc(Cl)c3)[C@@H]2C1 (stereo partly drawn)
- EC50 [8]: 1.9 µM (active)

SMILES: C/N=c1\scc(-c2ccco2)n1/N=C/c1ccc(O)c(O)c1
- IC50 [9]: 6.81 µM (active)
- IC50 [10]: 3.56 µM (active)
- EC50 (H4): 70.2 µM (active)
- IC50 (Large T antigen): 25.5 µM (active)
- IC50 [11]: 1.7 µM (active)
- IC50 [12]: 29.7 µM (active)
- IC50 [13]: 13.4 µM (active)
- IC50 [14]: 30.3 µM (active)
- IC50 (Protein Tat): > 100 µM (active)
- CC50 [15]: 9.16 µM (active)
